Data taken from patent US7495015B2, “Indazole derivatives and methods for using the same” (Roche Palo Alto LLC, priority 2004, dated 2009).

Target: T1, p38 MAP kinase (Homo sapiens, UniProt Q16539)
T1 construct: made in house; host or cells: E. coli (co-expressed with SEK-1 and MEKK to obtain the phosphorylated form)
Assay: p38 (MAP) kinase in vitro assay (transfer of γ-phosphate from γ-33P-ATP to Myelin Basic Protein)
Assay type: biochemical
Details: phosphorylated recombinant p38 MAP kinase, MBP substrate, 30° C.
Procedure: This example illustrates a p38 (MAP) kinase in vitro assay useful for evaluating the compounds of the invention.
The p38 MAP kinase inhibitory activity of compounds of this invention in vitro was determined by measuring the transfer of the γ-phosphate from γ-^33P-ATP by p-38 kinase to Myelin Basic Protein (MBP), using a minor modification of the method described in Ahn, et al., J. Biol. Chem. 266:4220-4227 (1991).
The phosphorylated form of the recombinant p38 MAP kinase was co-expressed with SEK-1 and MEKK in E. Coli (see, Khokhlatchev, et al., J Biol. Chem. 272:11057-11062 (1997)) and then purified by affinity chromatography using a Nickel column.
The phosphorylated p38 MAP kinase was diluted in kinase buffer (20 mM 3-(N-morpholino)propanesulfonic acid, pH 7.2, 25 mM β-glycerol phosphate, 5 mM ethylene glycol-bis(beta-aminoethyl ether)-N,N,N′,N′-tetraacetic acid, 1 mM sodium ortho-vanadate, 1 mM dithiothreitol, 40 mM magnesium chloride). Test compound dissolved in DMSO or only DMSO (control) was added and the samples were incubated for 10 min at 30° C. The kinase reaction was initiated by the addition of a substrate cocktail containing MBP and γ-^33P-ATP. […] The phosphorylated MBP was then separated from the residual γ-^33P-ATP using a phosphocellulose membrane (Millipore, Bedfrod, Mass.) and quantitated using a scintillation counter (Packard, Meriden, Conn.).

T1 sequence (Q16539 whole entry): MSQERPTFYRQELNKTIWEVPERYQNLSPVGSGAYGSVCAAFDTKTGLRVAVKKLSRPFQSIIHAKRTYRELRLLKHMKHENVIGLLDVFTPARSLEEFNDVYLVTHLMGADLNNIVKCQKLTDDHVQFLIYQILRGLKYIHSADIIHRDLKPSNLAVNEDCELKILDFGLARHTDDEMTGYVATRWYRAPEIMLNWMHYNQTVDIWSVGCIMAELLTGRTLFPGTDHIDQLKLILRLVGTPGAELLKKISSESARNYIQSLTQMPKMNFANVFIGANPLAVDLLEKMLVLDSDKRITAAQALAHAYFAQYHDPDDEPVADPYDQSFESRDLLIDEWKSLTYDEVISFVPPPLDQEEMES

IC50: 28 nM
SMILES: Oc1ccc(-c2n[nH]c3cc(Oc4ccccc4F)ccc23)cc1 [Compound 35, 4-[6-(2-Fluoro-phenoxy)-1H-indazol-3-yl]-phenol]
